# Experiments:
# [1] = Bioavailability study of 25/250 mg orally disintegrating tablets in healthy adult volunteers, fasting; type: in vivo; details: human, oral, Mean ± SD, 25/250 mg ODT, 36 healthy adult volunteers, plasma; for AUC(0-inf): read-out: AUCinf_obs
# [2] = combination of carbidopa and levodopa, no entacapone; cited from earlier work
Cmax [1] [µg/mL],Tmax [1] [h],AUC(0-inf) [1] [µg·h/mL],Structure (SMILES),levodopa half-life without entacapone [2] [h]
0.0985 ± 0.0383,2.8 ± 1,0.56 ± 0.197,C[C@@](Cc1ccc(O)c(O)c1)(NN)C(=O)O [Carbidopa],–
1.47 ± 0.567,1.7 ± 0.8,4.48 ± 1.58,"N[C@@H](Cc1ccc(O)c(O)c1)C(=O)O [Levodopa, (−)-L-α-amino-β-(3,4-dihydroxybenzene) propanoic acid monohydrate]",1.3
